This note sets out measurements from ChEMBL document CHEMBL5143601, “Rationalizing the binding and α subtype selectivity of synthesized imidazodiazepines and benzodiazepines at GABAA receptors by using molecular docking studies” (Bioorg Med Chem Lett, 2022).

By Ki is commonly meant a dissociation constant, usually derived from enzyme kinetics or from competition with a known ligand.

The target in assay [1] is T1, GABA-A receptor; alpha-1/beta-2/gamma-2 (Homo sapiens, UniProt P14867+P18507+P47870).
T1 sequence (P14867 whole entry): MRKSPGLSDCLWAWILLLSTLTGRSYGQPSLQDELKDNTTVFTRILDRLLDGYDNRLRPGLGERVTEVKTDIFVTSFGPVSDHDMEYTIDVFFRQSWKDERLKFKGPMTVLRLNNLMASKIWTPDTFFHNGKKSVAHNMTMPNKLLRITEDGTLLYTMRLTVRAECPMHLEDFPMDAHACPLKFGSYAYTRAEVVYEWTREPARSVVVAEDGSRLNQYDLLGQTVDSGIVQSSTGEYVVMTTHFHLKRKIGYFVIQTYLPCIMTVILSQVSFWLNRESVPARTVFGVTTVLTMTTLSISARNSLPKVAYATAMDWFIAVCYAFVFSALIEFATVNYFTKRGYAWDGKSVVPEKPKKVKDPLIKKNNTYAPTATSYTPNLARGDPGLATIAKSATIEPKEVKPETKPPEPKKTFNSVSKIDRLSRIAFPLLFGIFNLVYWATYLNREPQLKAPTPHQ
T1 sequence (P47870 whole entry): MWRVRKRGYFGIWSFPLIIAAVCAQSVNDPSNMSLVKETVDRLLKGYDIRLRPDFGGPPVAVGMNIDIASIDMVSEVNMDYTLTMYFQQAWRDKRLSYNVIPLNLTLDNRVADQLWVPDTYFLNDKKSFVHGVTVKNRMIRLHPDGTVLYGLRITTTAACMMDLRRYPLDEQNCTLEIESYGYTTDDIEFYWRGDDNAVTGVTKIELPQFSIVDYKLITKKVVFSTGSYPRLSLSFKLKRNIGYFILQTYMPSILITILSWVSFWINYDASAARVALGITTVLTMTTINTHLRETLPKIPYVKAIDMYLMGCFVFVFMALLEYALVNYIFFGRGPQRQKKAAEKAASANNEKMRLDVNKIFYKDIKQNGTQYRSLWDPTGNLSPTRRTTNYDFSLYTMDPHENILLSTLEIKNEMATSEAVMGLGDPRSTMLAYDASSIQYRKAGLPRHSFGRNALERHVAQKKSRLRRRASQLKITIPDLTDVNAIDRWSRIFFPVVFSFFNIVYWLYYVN
T1 sequence (P18507 whole entry): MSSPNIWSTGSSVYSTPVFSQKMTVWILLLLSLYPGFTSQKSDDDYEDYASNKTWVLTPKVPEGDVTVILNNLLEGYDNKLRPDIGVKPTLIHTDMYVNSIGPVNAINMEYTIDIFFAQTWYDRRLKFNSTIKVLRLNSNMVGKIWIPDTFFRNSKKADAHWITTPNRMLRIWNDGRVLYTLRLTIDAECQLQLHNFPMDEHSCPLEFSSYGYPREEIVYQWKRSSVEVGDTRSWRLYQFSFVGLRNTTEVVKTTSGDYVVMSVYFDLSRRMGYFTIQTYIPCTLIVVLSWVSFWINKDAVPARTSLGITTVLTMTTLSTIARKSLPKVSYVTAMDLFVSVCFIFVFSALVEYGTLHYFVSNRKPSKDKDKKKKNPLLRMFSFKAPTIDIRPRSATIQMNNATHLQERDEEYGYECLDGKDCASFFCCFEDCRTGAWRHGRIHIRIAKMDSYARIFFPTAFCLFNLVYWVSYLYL
The experiment in a line: Displacement of [3H]flunitrazepam from human recombinant alpha1beta2gamma2 GABAA receptor expressed in HEK cell membrane by competitive radioligand binding assay. Format: cell membranes. (Displacement assays read how much labelled ligand stays bound in the presence of the test substance.)

Assay [2] concerns the target T2, Gamma-aminobutyric acid receptor subunit alpha-5/beta-2/gamma-2 (Homo sapiens, UniProt P18507+P31644+P47870).
T2 sequence (P47870 whole entry): T1 sequence (P47870 whole entry)
T2 sequence (P18507 whole entry): T1 sequence (P18507 whole entry)
T2 sequence (P31644 whole entry): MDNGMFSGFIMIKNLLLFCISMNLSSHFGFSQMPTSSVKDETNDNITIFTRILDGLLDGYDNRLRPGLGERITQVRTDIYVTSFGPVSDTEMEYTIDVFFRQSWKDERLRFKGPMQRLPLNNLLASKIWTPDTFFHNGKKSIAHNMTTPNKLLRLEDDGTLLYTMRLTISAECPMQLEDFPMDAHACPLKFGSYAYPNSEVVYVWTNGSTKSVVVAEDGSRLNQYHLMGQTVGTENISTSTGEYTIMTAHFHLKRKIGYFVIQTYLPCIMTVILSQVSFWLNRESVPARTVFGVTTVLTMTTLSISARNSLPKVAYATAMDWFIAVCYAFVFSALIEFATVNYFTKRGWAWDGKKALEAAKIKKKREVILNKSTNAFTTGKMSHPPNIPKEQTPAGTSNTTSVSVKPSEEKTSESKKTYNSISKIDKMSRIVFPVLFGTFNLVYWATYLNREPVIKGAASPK
Briefly: Displacement of [3H]flunitrazepam from human recombinant alpha5beta2gamma2 GABAA receptor expressed in HEK cell membrane by competitive radioligand binding assay. Format: cell membranes.

Assay [3] concerns the target T3, GABA A receptor alpha-2/beta-2/gamma-2 (Homo sapiens, UniProt P18507+P47869+P47870).
T3 sequence (P47870 whole entry): T1 sequence (P47870 whole entry)
T3 sequence (P18507 whole entry): T1 sequence (P18507 whole entry)
T3 sequence (P47869 whole entry): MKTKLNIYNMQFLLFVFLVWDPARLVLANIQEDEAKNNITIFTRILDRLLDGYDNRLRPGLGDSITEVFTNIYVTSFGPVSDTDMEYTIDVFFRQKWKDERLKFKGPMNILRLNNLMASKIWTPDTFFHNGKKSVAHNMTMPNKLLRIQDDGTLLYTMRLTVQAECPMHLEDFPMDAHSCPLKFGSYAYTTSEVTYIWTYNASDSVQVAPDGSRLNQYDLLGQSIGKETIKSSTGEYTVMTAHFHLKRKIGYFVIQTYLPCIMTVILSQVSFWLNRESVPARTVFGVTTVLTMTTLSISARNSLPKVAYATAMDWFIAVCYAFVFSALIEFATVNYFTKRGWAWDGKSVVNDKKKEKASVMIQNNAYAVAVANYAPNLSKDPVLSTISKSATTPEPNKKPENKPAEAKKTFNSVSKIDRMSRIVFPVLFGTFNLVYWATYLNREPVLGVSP
The experiment in a line: Displacement of [3H]flunitrazepam from human recombinant alpha2beta2gamma2 GABAA receptor expressed in HEK cell membrane by competitive radioligand binding assay. Format: cell membranes.

The target in assay [4] is T4, GABA A receptor alpha-3/beta-2/gamma-2 (Homo sapiens, UniProt P18507+P34903+P47870).
T4 sequence (P47870 whole entry): T1 sequence (P47870 whole entry)
T4 sequence (P18507 whole entry): T1 sequence (P18507 whole entry)
T4 sequence (P34903 whole entry): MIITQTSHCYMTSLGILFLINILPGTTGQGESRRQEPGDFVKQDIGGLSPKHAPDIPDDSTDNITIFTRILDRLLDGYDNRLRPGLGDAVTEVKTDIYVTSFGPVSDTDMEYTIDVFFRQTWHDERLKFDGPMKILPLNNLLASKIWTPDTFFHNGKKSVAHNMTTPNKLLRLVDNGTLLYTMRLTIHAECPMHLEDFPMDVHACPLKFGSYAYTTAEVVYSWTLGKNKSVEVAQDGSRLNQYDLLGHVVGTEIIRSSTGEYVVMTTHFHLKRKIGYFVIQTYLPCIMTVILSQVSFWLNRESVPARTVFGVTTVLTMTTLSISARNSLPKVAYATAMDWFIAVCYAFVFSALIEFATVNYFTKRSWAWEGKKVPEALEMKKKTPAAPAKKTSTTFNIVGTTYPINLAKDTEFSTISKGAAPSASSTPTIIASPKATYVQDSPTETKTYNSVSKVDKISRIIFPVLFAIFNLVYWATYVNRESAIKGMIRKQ
Briefly: Displacement of [3H]flunitrazepam from human recombinant alpha3beta2gamma2 GABAA receptor expressed in HEK cell membrane by competitive radioligand binding assay. Format: cell membranes.

For another assay, the species on record is Homo sapiens. Briefly: Selectivity ratio of Ki for human recombinant alpha1beta2gamma2 GABAA receptor expressed in HEK cell membrane to Ki for human recombinant alpha5beta2gamma2 GABAA receptor expressed in HEK cell membrane. Format: cell-based.

SMILES strings stand for the structures. Some results are limits rather than exact numbers.

As to `C[C@H]1N=C(c2ccccc2)c2cc(Br)ccc2NC1=O`, the Ki in assay [1], in assay [2], in assay [3] and in assay [4] was more than 3000 nM throughout.
Turning to `C#Cc1ccc2c(c1)C(c1ccccn1)=NCc1nnc(C)n1-2`, the inhibitory constant (Ki) is 144 nM in assay [1], 45.6 nM in assay [2], 81.3 nM in assay [3] and 104 nM in assay [4].
For `Cc1nnc2n1-c1ccc(Br)cc1C(c1ccccc1Cl)=NC2` the same measures were 0.5 nM, 0.4 nM, 1 nM and 0.6 nM.
With `Cc1nnc2n1-c1ccc(Br)cc1C(c1ccccn1)=NC2`, the Ki in assay [1] stood at 7.3 nM; in assay [2], 7.7 nM; in assay [3], 6.1 nM; in assay [4], 5.1 nM.
For `C#Cc1ccc2c(c1)C(c1ccccc1F)=NCC(=O)N2C` the same measures were 3.9 nM, 0.8 nM, 1.2 nM and 3.4 nM.
Regarding `C#Cc1ccc2c(c1)C(c1ccccc1Cl)=NCC(=O)N2C`, the Ki in assay [1] amounted to 1.6 nM; in assay [2], 1.96 nM; in assay [3], 0.99 nM.
For `O=C1CN=C(c2ccccc2)c2ccccc2N1` [RO-052921], the Ki was 288 nM in assay [1], 140 nM in assay [2], 233 nM in assay [3] and 350 nM in assay [4]. In addition, the Ratio Ki in the assay filed under Homo sapiens is 2.
On to `O=C1CN=C(c2ccccc2F)c2cc(Br)ccc2N1`, for which the inhibition constant (Ki) was 0.26 nM in assay [1], 0.26 nM in assay [2], 0.15 nM in assay [3] and 0.28 nM in assay [4].
In the case of `C#Cc1ccc2c(c1)C(c1ccccc1F)=NCc1nnc(C)n1-2`, the figures for the inhibition constant Ki in assay [1], in assay [2] and in assay [3] were 6.3 nM, 0.6 nM and 2.1 nM, respectively.
Regarding `CN1C(=O)CN=C(c2ccccc2)c2ccccc21`, the Ki in assay [1] worked out at 81 nM; in assay [2], 98 nM; in assay [3], 138 nM; in assay [4] it was 318 nM.
Take `O=C1CN=C(c2ccccc2Cl)c2cc(Br)ccc2N1` [PHENAZEPAM]: the Ki in assay [1] is 0.05 nM; in assay [2] it was 0.68 nM; in assay [3] it was 0.06 nM; in assay [4], 0.12 nM.
For the compound `C[C@@H]1N=C(c2ccccc2)c2cc(Br)ccc2NC1=O`, the Ki in assay [1] was 14.4 nM; in assay [2], 1.89 nM; in assay [3], 11 nM; in assay [4] it was 19.1 nM. For the same compound, the Ratio Ki in the assay filed under Homo sapiens was determined as 7.
Consider `Cc1nnc2n1-c1ccc(Cl)cc1C(c1ccccc1)=NC2` [ALPRAZOLAM], for which the Ki in assay [1] came to 0.8 nM; in assay [2], 1.5 nM; in assay [3], 0.6 nM; in assay [4], 1.4 nM.
As for `Cc1nnc2n1-c1ccc(Br)cc1C(c1ccccc1)=NC2`, the Ki in assay [1] is 2.8 nM; in assay [2], 0.6 nM; in assay [3], 0.7 nM.
In the case of `C#Cc1ccc2c(c1)C(c1ccccc1)=N[C@@H](C)c1nnc(C)n1-2`, the Ki in assay [1] turned out to be 107 nM; in assay [2] it was 8.1 nM; in assay [3] it was 50.1 nM; in assay [4], 20.9 nM. Further, the Ratio Ki in the assay filed under Homo sapiens is 13.
With `C#Cc1ccc2c(c1)C(c1ccccc1Cl)=NCc1nnc(C)n1-2`, the Ki worked out at 3.3 nM in assay [1], 4.4 nM in assay [2], 0.6 nM in assay [3] and 1.9 nM in assay [4].
`C#Cc1ccc2c(c1)C(c1ccccc1)=NCc1nnc(C)n1-2`: the inhibitory constant (Ki) was determined as 36.4 nM in assay [1], 5.3 nM in assay [2] and 25.8 nM in assay [3]. Further, the Ratio Ki in the assay filed under Homo sapiens stood at 6.
Take `CN1C(=O)CN=C(c2ccccc2)c2cc(Br)ccc21`: the Ki in assay [1] turned out to be 9.4 nM; in assay [2], 7.7 nM; in assay [3] it was 9.3 nM; in assay [4] it was 31 nM.
Take `C#Cc1ccc2c(c1)C(c1ccccc1)=NCC(=O)N2C`: the Ki came to 76.3 nM in assay [1], 6.8 nM in assay [2], 42.1 nM in assay [3] and 47.4 nM in assay [4]. In addition, the Ratio Ki in the assay listed under Homo sapiens stood at 11.
